According to ChEMBL document CHEMBL1201862, “PubChem BioAssay data set” (2004):
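These data come from cells grown in 96-well plates and exposed to compound for 48 hours at five concentrations. GI50: concentration for 50% inhibition of growth.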 Active and inactive are the calls of the source. Rule as the data show it: active = GI50 up to about 1.1 µM and inactive = higher.

How the values were obtained:
Experiment in all cases: NCI tumour cell line growth inhibition, 48 h
[1] = test system: RXF 393
[2] = test system: A498
[3] = test system: SW-620
[4] = test system: SK-MEL-2
[5] = test system: NCI-H460
[6] = test system: MOLT-4
[7] = test system: 786-0
[8] = test system: SK-OV-3
[9] = test system: NCI-H226
[10] = test system: K562
[11] = test system: KM12
[12] = test system: HOP-62
[13] = test system: OVCAR-5
[14] = test system: LXFL 529
[15] = test system: NCI-H23
[16] = test system: EKVX
[17] = test system: HOP-92
[18] = test system: TK-10
[19] = test system: Malme-3M
[20] = test system: HT-29
[21] = test system: RXF 631
[22] = test system: UACC-257
[23] = test system: SK-MEL-28
[24] = test system: OVCAR-8
[25] = test system: UACC-62
[26] = test system: SNB-19
[27] = test system: HCT-15
[28] = test system: A549
[29] = test system: SK-MEL-5
[30] = test system: HOP-18
[31] = test system: OVCAR-3
[32] = test system: SF-295
[33] = test system: KM-20L2
[34] = test system: M14
[35] = test system: SN12C
[36] = test system: DMS-114
[37] = test system: HCC 2998
[38] = test system: SF-539
[39] = test system: DMS-273
[40] = test system: M19-MEL
[41] = test system: NCI-H522
[42] = test system: OVCAR-4
[43] = test system: U-251
[44] = test system: LOX IMVI
[45] = test system: XF498
[46] = test system: SNB-75
[47] = test system: CCRF-CEM
[48] = test system: COLO 205
[49] = test system: IGROV-1
[50] = test system: DLD-1
[51] = test system: HCT-116
[52] = test system: ACHN
[53] = test system: SNB-78
[54] = test system: SF-268
[55] = test system: UO-31
[56] = test system: HL-60
[57] = test system: CAKI-1
[58] = test system: RPMI-8226

Q: How did the GI50 [1] turn out when O=C(CCc1nnc2s/c(=C\c3ccccc3[N+](=O)[O-])c(=O)n12)Nc1cc(Cl)c(Cl)cc1Cl was run?
A: The GI50 was 22 µM (inactive).

Q: What about the GI50 [2] of the same compound?
A: Its GI50 is 20.4 µM (inactive).

Q: What about the GI50 [3] of the same compound?
A: The GI50 was > 10 µM (inactive).

Q: And the GI50 [4]?
A: Its GI50 is 92.7 µM (inactive).

Q: What about the GI50 [5] of the same compound?
A: The GI50 was 27.4 µM (inactive).

Q: And the GI50 [6]?
A: Its GI50 is 21 µM (inactive).

Q: And the GI50 [7]?
A: The GI50 was 17.1 µM (inactive).

Q: And the GI50 [8]?
A: The GI50 was 56.6 µM (inactive).

Q: What about the GI50 [9] of the same compound?
A: The GI50 was 16.4 µM (inactive).

Q: And the GI50 [10]?
A: The GI50 was 22 µM (inactive).

Q: What about the GI50 [11] of the same compound?
A: The GI50 was 19.5 µM (inactive).

Q: And the GI50 [12]?
A: The GI50 was 23.1 µM (inactive).

Q: And the GI50 [13]?
A: Its GI50 is 34.1 µM (inactive).

Q: What about the GI50 [14] of the same compound?
A: The GI50 was 21.8 µM (inactive).

Q: And the GI50 [15]?
A: The GI50 was 33.2 µM (inactive).

Q: What about the GI50 [16] of the same compound?
A: The GI50 was 37.9 µM (inactive).

Q: What about the GI50 [17] of the same compound?
A: Its GI50 is 18.7 µM (inactive).

Q: What about the GI50 [18] of the same compound?
A: The GI50 was 37.1 µM (inactive).

Q: What about the GI50 [19] of the same compound?
A: Its GI50 is 48.2 µM (inactive).

Q: And the GI50 [20]?
A: Its GI50 is 35.2 µM (inactive).

Q: What about the GI50 [21] of the same compound?
A: The GI50 was 47.1 µM (inactive).

Q: What about the GI50 [22] of the same compound?
A: Its GI50 is 63.4 µM (inactive).

Q: What about the GI50 [23] of the same compound?
A: The GI50 was 92.9 µM (inactive).

Q: And the GI50 [24]?
A: Its GI50 is 25.9 µM (inactive).

Q: And the GI50 [25]?
A: The GI50 was 40.4 µM (inactive).

Q: What about the GI50 [26] of the same compound?
A: The GI50 was 30.1 µM (inactive).

Q: What about the GI50 [27] of the same compound?
A: The GI50 was 40.4 µM.

Q: What about the GI50 [28] of the same compound?
A: The GI50 was 30.5 µM (inactive).

Q: And the GI50 [29]?
A: The GI50 was 34.1 µM (inactive).

Q: What about the GI50 [30] of the same compound?
A: The GI50 was 18.3 µM (inactive).

Q: What about the GI50 [31] of the same compound?
A: The GI50 was 18.2 µM (inactive).

Q: And the GI50 [32]?
A: Its GI50 is 18.7 µM (inactive).

Q: And the GI50 [33]?
A: The GI50 was 54 µM (inactive).

Q: What about the GI50 [34] of the same compound?
A: The GI50 was 32.5 µM (inactive).

Q: What about the GI50 [35] of the same compound?
A: Its GI50 is 24.6 µM (inactive).

Q: And the GI50 [36]?
A: The GI50 was 49.3 µM (inactive).

Q: And the GI50 [37]?
A: Its GI50 is 38.5 µM (inactive).

Q: What about the GI50 [38] of the same compound?
A: Its GI50 is 21.1 µM (inactive).

Q: What about the GI50 [39] of the same compound?
A: The GI50 was 54.3 µM (inactive).

Q: What about the GI50 [40] of the same compound?
A: The GI50 was 43.2 µM (inactive).

Q: And the GI50 [41]?
A: Its GI50 is 38.3 µM (inactive).

Q: And the GI50 [42]?
A: The GI50 was 14.7 µM (inactive).

Q: And the GI50 [43]?
A: Its GI50 is 16.9 µM (inactive).

Q: What about the GI50 [44] of the same compound?
A: The GI50 was 20.8 µM (inactive).

Q: And the GI50 [45]?
A: Its GI50 is 22.6 µM (inactive).

Q: What about the GI50 [46] of the same compound?
A: The GI50 was 20.5 µM (inactive).

Q: What about the GI50 [47] of the same compound?
A: Its GI50 is 24.4 µM (inactive).

Q: What about the GI50 [48] of the same compound?
A: The GI50 was 83.4 µM (inactive).

Q: And the GI50 [49]?
A: Its GI50 is 69.5 µM (inactive).

Q: What about the GI50 [50] of the same compound?
A: The GI50 was 25.2 µM (inactive).

Q: And the GI50 [51]?
A: The GI50 was 17.5 µM (inactive).

Q: What about the GI50 [52] of the same compound?
A: Its GI50 is 35.8 µM (inactive).

Q: And the GI50 [53]?
A: Its GI50 is 35.2 µM (inactive).

Q: And the GI50 [54]?
A: The GI50 was 26.5 µM (inactive).

Q: And the GI50 [55]?
A: The GI50 was 31.6 µM (inactive).

Q: For CCOC(=O)C12CCCC1(O)N(NC(=O)OC)C(C)=C2C(=O)OC (stereo not given), which GI50 [2] is on record?
A: Its GI50 is > 100 µM (inactive).

Q: And the GI50 [3]?
A: The GI50 was > 100 µM (inactive).

Q: And the GI50 [4]?
A: Its GI50 is 14.1 µM (inactive).

Q: And the GI50 [5]?
A: Its GI50 is > 100 µM (inactive).

Q: What about the GI50 [6] of the same compound?
A: Its GI50 is > 100 µM (inactive).

Q: And the GI50 [7]?
A: The GI50 was 20.4 µM (inactive).

Q: What about the GI50 [8] of the same compound?
A: Its GI50 is > 100 µM (inactive).

Q: What about the GI50 [9] of the same compound?
A: The GI50 was > 100 µM (inactive).

Q: And the GI50 [10]?
A: Its GI50 is > 100 µM (inactive).

Q: What about the GI50 [11] of the same compound?
A: The GI50 was > 10 µM (inactive).

Q: And the GI50 [12]?
A: Its GI50 is > 100 µM (inactive).

Q: And the GI50 [13]?
A: Its GI50 is > 100 µM (inactive).

Q: And the GI50 [14]?
A: Its GI50 is > 100 µM (inactive).

Q: What about the GI50 [15] of the same compound?
A: Its GI50 is > 100 µM (inactive).

Q: What about the GI50 [16] of the same compound?
A: Its GI50 is > 100 µM (inactive).

Q: What about the GI50 [17] of the same compound?
A: The GI50 was > 100 µM (inactive).

Q: What about the GI50 [18] of the same compound?
A: Its GI50 is > 100 µM (inactive).

Q: What about the GI50 [19] of the same compound?
A: Its GI50 is > 100 µM (inactive).

Q: And the GI50 [20]?
A: The GI50 was > 100 µM (inactive).

Q: What about the GI50 [21] of the same compound?
A: The GI50 was > 100 µM (inactive).

Q: What about the GI50 [22] of the same compound?
A: Its GI50 is > 100 µM (inactive).

Q: What about the GI50 [23] of the same compound?
A: Its GI50 is > 100 µM (inactive).

Q: And the GI50 [24]?
A: The GI50 was > 100 µM (inactive).

Q: What about the GI50 [25] of the same compound?
A: Its GI50 is > 100 µM (inactive).

Q: What about the GI50 [26] of the same compound?
A: The GI50 was > 100 µM (inactive).

Q: What about the GI50 [27] of the same compound?
A: Its GI50 is > 100 µM.

Q: And the GI50 [28]?
A: The GI50 was > 100 µM (inactive).

Q: What about the GI50 [30] of the same compound?
A: Its GI50 is > 100 µM (inactive).

Q: And the GI50 [31]?
A: Its GI50 is > 10 µM (inactive).

Q: What about the GI50 [32] of the same compound?
A: Its GI50 is > 10 µM (inactive).

Q: What about the GI50 [33] of the same compound?
A: Its GI50 is > 100 µM (inactive).

Q: What about the GI50 [34] of the same compound?
A: The GI50 was > 100 µM (inactive).

Q: And the GI50 [35]?
A: The GI50 was > 100 µM (inactive).

Q: What about the GI50 [36] of the same compound?
A: The GI50 was > 100 µM (inactive).

Q: What about the GI50 [37] of the same compound?
A: Its GI50 is > 100 µM (inactive).

Q: What about the GI50 [38] of the same compound?
A: Its GI50 is > 100 µM (inactive).

Q: What about the GI50 [39] of the same compound?
A: Its GI50 is > 100 µM (inactive).

Q: And the GI50 [40]?
A: Its GI50 is > 100 µM (inactive).

Q: And the GI50 [56]?
A: The GI50 was > 100 µM (inactive).

Q: What about the GI50 [41] of the same compound?
A: The GI50 was > 100 µM (inactive).

Q: And the GI50 [42]?
A: The GI50 was > 100 µM (inactive).

Q: And the GI50 [43]?
A: Its GI50 is > 100 µM (inactive).

Q: What about the GI50 [44] of the same compound?
A: The GI50 was > 100 µM (inactive).

Q: And the GI50 [45]?
A: Its GI50 is > 100 µM (inactive).

Q: And the GI50 [47]?
A: Its GI50 is > 100 µM (inactive).

Q: And the GI50 [48]?
A: The GI50 was > 100 µM (inactive).

Q: What about the GI50 [57] of the same compound?
A: The GI50 was > 100 µM (inactive).

Q: What about the GI50 [49] of the same compound?
A: Its GI50 is > 100 µM (inactive).

Q: And the GI50 [50]?
A: The GI50 was > 100 µM (inactive).

Q: What about the GI50 [51] of the same compound?
A: The GI50 was > 100 µM (inactive).

Q: What about the GI50 [52] of the same compound?
A: The GI50 was > 100 µM (inactive).

Q: What about the GI50 [58] of the same compound?
A: Its GI50 is > 100 µM (inactive).

Q: And the GI50 [53]?
A: The GI50 was > 100 µM (inactive).

Q: And the GI50 [54]?
A: The GI50 was > 100 µM (inactive).

Q: What about the GI50 [55] of the same compound?
A: Its GI50 is > 100 µM (inactive).
